Numbered stars: 1 amine (or outer) side, 2 acyl side, 3 side chain; on linkers, the order of the positions; unused ones are H or OH. Peptide text beside a SMILES is read from it. * marks the point of attachment. C20 diacid = O=C(O)CCCCCCCCCCCCCCCCCCC(=O)*; γGlu = O=C(O)[C@H](CCC(=O)[*:2])N[*:1]
Legend:
[1] = system: Rattus norvegicus; experiment: Reduction in food intake in Sprague-Dawley rat at 3 nmol/kg measured 0 to 24 hrs post dose relative to control; format: functional; parameters: scale not given: the % may be the effect or the level left
[2] = system: Rattus norvegicus; experiment: Reduction in food intake in Sprague-Dawley rat at 3 nmol/kg measured 24 to 48 hrs post dose relative to control; format: functional; parameters: scale not given: the % may be the effect or the level left
[3] = target: T1, Amylin receptor AMY3; CALCR/RAMP3 (Homo sapiens, UniProt O60896+P30988); experiment: Agonist activity at human amylin receptor expressed in BHK570 cells co-expressing RAMP3 assessed as increase in intracellular cAMP concentration incubated for 3 hrs in absence of albumin by CRE luciferase reporter gene assay; format: functional, cell-based
T1 sequence (P30988 whole entry): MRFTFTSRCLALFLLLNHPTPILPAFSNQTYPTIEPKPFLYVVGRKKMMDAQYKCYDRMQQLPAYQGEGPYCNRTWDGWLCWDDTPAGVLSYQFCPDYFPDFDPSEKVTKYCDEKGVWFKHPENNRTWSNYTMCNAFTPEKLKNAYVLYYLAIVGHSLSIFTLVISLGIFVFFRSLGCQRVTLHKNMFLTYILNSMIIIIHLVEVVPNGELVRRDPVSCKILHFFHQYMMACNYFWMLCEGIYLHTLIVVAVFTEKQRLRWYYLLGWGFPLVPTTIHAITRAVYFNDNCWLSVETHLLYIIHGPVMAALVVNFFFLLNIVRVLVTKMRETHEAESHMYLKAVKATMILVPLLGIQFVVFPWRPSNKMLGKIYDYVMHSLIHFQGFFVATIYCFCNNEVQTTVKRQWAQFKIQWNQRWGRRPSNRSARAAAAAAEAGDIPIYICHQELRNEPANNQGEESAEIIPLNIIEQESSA
T1 sequence (O60896 whole entry): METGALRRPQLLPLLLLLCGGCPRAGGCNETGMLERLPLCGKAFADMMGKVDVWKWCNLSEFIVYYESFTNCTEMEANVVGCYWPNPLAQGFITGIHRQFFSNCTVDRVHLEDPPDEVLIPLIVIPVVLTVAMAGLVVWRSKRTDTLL

[4] = target: T2, Calcitonin receptor (Homo sapiens, UniProt P30988); experiment: Agonist activity at human calcitonin receptor expressed in BHK570 cells assessed as increase in intracellular cAMP concentration incubated for 3 hrs in absence of albumin by CRE luciferase reporter gene assay; format: functional, cell-based
T2 sequence (P30988 whole entry): T1 sequence (P30988 whole entry)

[5] = target: T1, Amylin receptor AMY3; CALCR/RAMP3; experiment: Agonist activity at human amylin receptor expressed in BHK570 cells co-expressing RAMP3 assessed as increase in intracellular cAMP concentration incubated for 3 hrs in presence of 10% FBS by CRE luciferase reporter gene assay; format: functional, cell-based
[6] = target: T2, Calcitonin receptor; experiment: Agonist activity at human calcitonin receptor expressed in BHK570 cells assessed as increase in intracellular cAMP concentration incubated for 3 hrs in presence of 10% FBS by CRE luciferase reporter gene assay; format: functional, cell-based
[7] = Stability in pH 7.5 buffer assessed as lag time for fibril formation at 1 uM by Thioflavin T based fluorescence assay; format: physicochemical; details: pH 7.5, 1 µM
[8] = Stability in pH 7.5 buffer assessed as compound recovery at 1 uM by Thioflavin T based fluorescence assay; format: physicochemical; details: read-out: Drug recovery
[9] = Solubility in 100 mM glycylglycine buffer at pH 3.0 incubated for 18 hrs by UPLC analysis; format: physicochemical
[10] = Solubility in 100 mM glycylglycine buffer at pH 4.0 incubated for 18 hrs by UPLC analysis; format: physicochemical
[11] = Solubility in 100 mM bistrispropane buffer at pH 6.0 incubated for 18 hrs by UPLC analysis; format: physicochemical
[12] = Solubility in 100 mM glycylglycine buffer at pH 5.0 incubated for 18 hrs by UPLC analysis; format: physicochemical
[13] = Solubility in 100 mM bistrispropane buffer at pH 6.5 incubated for 18 hrs by UPLC analysis; format: physicochemical
[14] = Solubility in 100 mM bistrispropane buffer at pH 7.0 incubated for 18 hrs by UPLC analysis; format: physicochemical
[15] = Solubility in 100 mM bistrispropane buffer at pH 7.5 incubated for 18 hrs by UPLC analysis; format: physicochemical
[16] = Solubility in 100 mM bistrispropane buffer at pH 8.0 incubated for 18 hrs by UPLC analysis; format: physicochemical

| SMILES | Activity [1] | Activity [2] | EC50 [3] | EC50 [4] | EC50 [5] | EC50 [6] | Time [7] | remaining at 1 µM [8] | solubility at 18 h [9] | solubility at 18 h [10] | solubility at 18 h [11] | solubility at 18 h [12] | solubility at 18 h [13] | solubility at 18 h [14] | solubility at 18 h [15] | solubility at 18 h [16] |
| --- | --- | --- | --- | --- | --- | --- | --- | --- | --- | --- | --- | --- | --- | --- | --- | --- |
| CC(C)C[C@H](NC(=O)CNC(=O)[C@H](CO)NC(=O)[C@H](C)NC(=O)CC[C@H](NC(=O)CCCCCCCCCCCCCCCCCCC(=O)O)C(=O)O)C(=O)N[C@@H](CO)C(=O)N[C@H](C(=O)N[C@@H](C)C(=O)N[C@H](C(=O)N[C@@H](CC(C)C)C(=O)NCC(=O)N[C@@H](CCCNC(=N)N)C(=O)N[C@@H](CC(C)C)C(=O)N[C@@H](CO)C(=O)N[C@@H](C)C(=O)N[C@@H](CCC(=O)O)C(=O)N[C@@H](CC(C)C)C(=O)N[C@@H](Cc1cnc[nH]1)C(=O)N[C@@H](CCC(=O)O)C(=O)N[C@@H](CC(C)C)C(=O)N[C@@H](C)C(=O)N[C@H](C(=O)N[C@@H](Cc1ccc(O)cc1)C(=O)N1CCC[C@H]1C(=O)N[C@@H](CCCNC(=N)N)C(=O)N[C@H](C(=O)N[C@@H](CCC(=O)O)C(=O)N[C@H](C(=O)NCC(=O)N[C@@H](CO)C(=O)NCC(=O)N[C@H](C(=O)N1CCC[C@H]1C(N)=O)[C@@H](C)O)[C@@H](C)O)[C@@H](C)O)[C@@H](C)O)C(C)C)[C@@H](C)O ({C20 diacid-γGlu}-ASGLSTAVLGRLSAELHELATYPRTETGSGTP-NH2) | 52% | 57% | 0.047 nM | 0.028 nM | 0.066 nM | 0.035 nM | > 45 h | 100% | ≥ 200 µM | ≥ 200 µM | ≥ 200 µM | ≥ 200 µM | ≥ 200 µM | ≥ 200 µM | ≥ 200 µM | ≥ 200 µM |
| CC(C)C[C@H](NC(=O)CNC(=O)[C@H](CO)NC(=O)[C@H](C)NC(=O)CC[C@H](NC(=O)CCCCCCCCCCCCCCCCCCC(=O)O)C(=O)O)C(=O)N[C@@H](CO)C(=O)N[C@H](C(=O)N[C@@H](C)C(=O)N[C@@H](C)C(=O)N[C@@H](CC(C)C)C(=O)NCC(=O)N[C@@H](CCCNC(=N)N)C(=O)N[C@@H](CC(C)C)C(=O)N[C@@H](CO)C(=O)N[C@@H](CCC(N)=O)C(=O)N[C@@H](CCC(=O)O)C(=O)N[C@@H](CC(C)C)C(=O)N[C@@H](Cc1cnc[nH]1)C(=O)N[C@@H](CCC(=O)O)C(=O)N[C@@H](CC(C)C)C(=O)N[C@@H](CCC(=O)O)C(=O)N[C@H](C(=O)N[C@@H](Cc1ccc(O)cc1)C(=O)N1CCC[C@H]1C(=O)N[C@@H](CCCNC(=N)N)C(=O)N[C@H](C(=O)N[C@@H](CCC(=O)O)C(=O)N[C@H](C(=O)NCC(=O)N[C@@H](CO)C(=O)NCC(=O)N[C@H](C(=O)N[C@@H](Cc1ccc(O)cc1)C(N)=O)[C@@H](C)O)[C@@H](C)O)[C@@H](C)O)[C@@H](C)O)[C@@H](C)O ({C20 diacid-γGlu}-ASGLSTAALGRLSQELHELETYPRTETGSGTY-NH2) | 27% | 26% |  |  | 0.15 nM | 0.068 nM | > 45 h | 100% | ≥ 200 µM | ≥ 200 µM | ≥ 200 µM |  | ≥ 200 µM | ≥ 200 µM | ≥ 200 µM | ≥ 200 µM |
| CC(C)C[C@H](NC(=O)CNC(=O)[C@H](CO)NC(=O)[C@H](C)NC(=O)CC[C@H](NC(=O)CCCCCCCCCCCCCCCCCCC(=O)O)C(=O)O)C(=O)N[C@@H](CO)C(=O)N[C@H](C(=O)N[C@@H](C)C(=O)N[C@H](C(=O)N[C@@H](CC(C)C)C(=O)NCC(=O)N[C@@H](CCCNC(=N)N)C(=O)N[C@@H](CC(C)C)C(=O)N[C@@H](CO)C(=O)N[C@@H](C)C(=O)N[C@@H](CCC(=O)O)C(=O)N[C@@H](CC(C)C)C(=O)N[C@@H](Cc1cnc[nH]1)C(=O)N[C@@H](CCC(=O)O)C(=O)N[C@@H](CC(C)C)C(=O)N[C@@H](C)C(=O)N[C@H](C(=O)N[C@@H](Cc1ccc(O)cc1)C(=O)N1CCC[C@H]1C(=O)N[C@@H](CCCNC(=N)N)C(=O)N[C@H](C(=O)N[C@@H](CCC(=O)O)C(=O)N[C@H](C(=O)NCC(=O)N[C@@H](CO)C(=O)NCC(=O)N[C@H](C(=O)N[C@@H](Cc1ccc(O)cc1)C(N)=O)[C@@H](C)O)[C@@H](C)O)[C@@H](C)O)[C@@H](C)O)C(C)C)[C@@H](C)O ({C20 diacid-γGlu}-ASGLSTAVLGRLSAELHELATYPRTETGSGTY-NH2) | 26% | 28% |  | 0.07 nM | 0.122 nM | 0.053 nM | > 45 h | 100% | ≥ 200 µM | ≥ 200 µM | ≥ 200 µM |  | ≥ 200 µM | ≥ 200 µM | ≥ 200 µM | ≥ 200 µM |
| CC(C)C[C@H](NC(=O)CNC(=O)[C@H](CO)NC(=O)[C@H](C)NC(=O)CC[C@H](NC(=O)CCCCCCCCCCCCCCCCCCC(=O)O)C(=O)O)C(=O)N[C@@H](CO)C(=O)N[C@H](C(=O)N[C@@H](C)C(=O)N[C@H](C(=O)N[C@@H](CC(C)C)C(=O)NCC(=O)N[C@@H](CCCNC(=N)N)C(=O)N[C@@H](CC(C)C)C(=O)N[C@@H](CO)C(=O)N[C@@H](CCC(N)=O)C(=O)N[C@@H](CCC(=O)O)C(=O)N[C@@H](CC(C)C)C(=O)N[C@@H](Cc1cnc[nH]1)C(=O)N[C@@H](CCC(=O)O)C(=O)N[C@@H](CC(C)C)C(=O)N[C@@H](CCC(N)=O)C(=O)N[C@H](C(=O)N[C@@H](Cc1ccc(O)cc1)C(=O)N1CCC[C@H]1C(=O)N1CCC[C@H]1C(=O)N[C@H](C(=O)N[C@@H](CCC(=O)O)C(=O)N[C@H](C(=O)NCC(=O)N[C@@H](CO)C(=O)N[C@@H](CCC(N)=O)C(=O)N[C@H](C(=O)N[C@@H](Cc1ccc(O)cc1)C(N)=O)[C@@H](C)O)[C@@H](C)O)[C@@H](C)O)[C@@H](C)O)C(C)C)[C@@H](C)O ({C20 diacid-γGlu}-ASGLSTAVLGRLSQELHELQTYPPTETGSQTY-NH2) | 9% | 5% |  | 0.057 nM | 0.152 nM | 0.072 nM | > 45 h | 100% | ≥ 200 µM |  | ≥ 200 µM | ≥ 200 µM | ≥ 200 µM | ≥ 200 µM | ≥ 200 µM | ≥ 200 µM |
| CC(C)C[C@H](NC(=O)[C@H](C)NC(=O)[C@H](C)NC(=O)[C@@H](NC(=O)[C@H](CO)NC(=O)[C@H](CC(C)C)NC(=O)[C@H](CCC(=O)O)NC(=O)[C@H](CO)NC(=O)[C@H](C)NC(=O)CC[C@H](NC(=O)CCCCCCCCCCCCCCCCCCC(=O)O)C(=O)O)[C@@H](C)O)C(=O)NCC(=O)N[C@@H](CCCNC(=N)N)C(=O)N[C@@H](CC(C)C)C(=O)N[C@@H](CO)C(=O)N[C@@H](C)C(=O)N[C@@H](CCC(=O)O)C(=O)N[C@@H](CC(C)C)C(=O)N[C@@H](Cc1cnc[nH]1)C(=O)N[C@@H](CCC(=O)O)C(=O)N[C@@H](CC(C)C)C(=O)N[C@@H](C)C(=O)N[C@H](C(=O)N[C@@H](Cc1ccc(O)cc1)C(=O)N1CCC[C@H]1C(=O)N[C@@H](CCCNC(=N)N)C(=O)N[C@H](C(=O)N[C@@H](CCC(=O)O)C(=O)N[C@H](C(=O)NCC(=O)N[C@@H](CO)C(=O)NCC(=O)N[C@@H](CO)C(=O)N[C@@H](Cc1ccc(O)cc1)C(N)=O)[C@@H](C)O)[C@@H](C)O)[C@@H](C)O ({C20 diacid-γGlu}-ASELSTAALGRLSAELHELATYPRTETGSGSY-NH2) | 49% | 56% | 0.032 nM | 0.029 nM | 0.093 nM | 0.071 nM | > 45 h | 100% | ≥ 200 µM | ≥ 200 µM | ≥ 200 µM |  | ≥ 200 µM | ≥ 200 µM | ≥ 200 µM | ≥ 200 µM |

Source: ChEMBL document CHEMBL4420076, “Amylin and calcitonin receptor agonist” (2017)
